What is called IC50 is the point on the concentration scale where inhibition reaches its midpoint.

The source of these data is US12692254B2, “Benzimidazole inhibitors of PAD enzymes” (BRISTOL-MYERS SQUIBB COMPANY, priority 2018, dated 2026).

The target in this assay is human PAD4 (hPAD4) (Homo sapiens, UniProt Q9UM07). Nature of the assay: RFMS human PAD4 functional assay (rapid-fire mass spectrum). The format is biochemical. To be noted: 5 nM hPAD4 enzyme, 250 μM BAEE, 50 μM Calcium; 30 min preincubation, 90 min reaction at 37° C. The essentials:
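PAD4 (10 nM) preincubated 30 min with compound (top final 50 μM), then BAEE substrate added in pH 7.5 HEPES buffer with DTT, 50 μM calcium, TPEN; 90 min at 37° C. After TCA quench, citrulline derivatized with phenyl glyoxal (4 mM final, 30 min, 37° C) and quantified by RapidFire MS against internal standard.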

Sequence of human PAD4 (hPAD4) (Q9UM07 whole entry): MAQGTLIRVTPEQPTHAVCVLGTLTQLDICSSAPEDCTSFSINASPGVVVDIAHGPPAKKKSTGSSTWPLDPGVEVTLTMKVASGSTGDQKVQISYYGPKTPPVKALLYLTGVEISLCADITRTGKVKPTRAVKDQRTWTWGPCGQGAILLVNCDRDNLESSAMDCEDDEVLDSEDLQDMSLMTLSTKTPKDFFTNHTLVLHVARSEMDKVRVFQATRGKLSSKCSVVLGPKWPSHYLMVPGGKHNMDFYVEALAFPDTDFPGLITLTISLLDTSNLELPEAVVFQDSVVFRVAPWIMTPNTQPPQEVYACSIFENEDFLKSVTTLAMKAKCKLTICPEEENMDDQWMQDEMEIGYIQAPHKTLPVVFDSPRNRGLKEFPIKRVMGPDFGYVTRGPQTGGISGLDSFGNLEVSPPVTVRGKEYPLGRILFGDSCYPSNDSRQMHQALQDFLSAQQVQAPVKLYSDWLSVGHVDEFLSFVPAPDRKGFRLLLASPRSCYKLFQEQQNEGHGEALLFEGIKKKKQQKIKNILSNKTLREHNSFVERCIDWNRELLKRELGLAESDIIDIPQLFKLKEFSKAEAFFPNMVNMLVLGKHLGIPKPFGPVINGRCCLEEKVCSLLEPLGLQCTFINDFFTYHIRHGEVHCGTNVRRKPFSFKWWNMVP

For `COc1cc(C(=O)N2CC3CCC2[C@@H]3N)cc2nc(-c3cc4cccnc4n3CC3CC3)n(CC3CN(C(=O)c4ccc(C#N)cc4F)C3)c12` (stereo partly drawn) [Example 454, 4-[3-({5-[(7R)-7-amino-2-azabicyclo[2.2.1]heptane-2-carbonyl]-2-(1-(cyclopropylmethyl)-1H-pyrrolo[2,3-b]pyridin-2-yl]-7-methoxy-1H-1,3-benzodiazol-1-yl}methyl)azetidine-1-carbonyl]-3-fluorobenzointrile], the IC50 amounted to 53 nM.
The same measure for `COc1cc(C(=O)N2CC3CCC2[C@@H]3N)cc2nc(-c3cc4ccccc4n3CC3CC3)n(Cc3cnn(-c4cccc(C)n4)c3)c12` (stereo partly drawn) [Example 381, (7R)-2-{2-[1-(cyclopropylmethyl)-1H-indol-2-yl]-7-methoxy-1-{[1-(6-methylpyridin-2-yl)-1H-pyrazol-4-yl]methyl}-1H-1,3-benzodiazole-5-carbonyl}-2-azabicydo[2.2.1]heptan-7-amine]: 37 nM; for `COc1cc(C(=O)N2CC3CCC2[C@@H]3N)cc2nc(-c3cc4ccccc4n3CC3CC3)n(C[C@H]3CCN(c4cncc(C#N)c4)C3)c12` (stereo partly drawn) [Example 225, 5-[(3S)-3-({5-[(1R,4R,7R)-7-amino-2-azabicyclo[2.2.1]heptane-2-carbonyl]-2-[1-(cyclopropylmethyl)-1H-indo1-2-yl]-7-methoxy-1H-1,3-benzodiazol-1-yl}methyl)pyrrolidin-1-yl]pyridine-3-carbonitrile]: 26 nM; for `COc1cc(C(=O)N2C[C@H]3CC[C@@H]2[C@@H]3N)cc2nc(-c3cc4ccccc4n3CC3CC3)n(CC3CN(C(=O)c4ccccc4Cl)C3)c12` [Example 146, (1R,4R,7R)-2-(1-{[1-(2-chlorobenzoyl)azetidin-3-yl]methyl}-2-[1-(cyclopropylmethyl)-1H-indol-2-yl]-7-methoxy-1H-1,3-benzodiazole-5-carbonyl)-2-azabicyclo[2.2.1]heptan-7-amine]: 18 nM.
To `COc1cc(C(=O)N2CC3CCC2[C@@H]3N)cc2nc(-c3cc4cccnc4n3CC3CC3)n(Cc3cnn(-c4ccccc4)c3)c12` (stereo partly drawn) [Example 367, (7R)-2-{2-[1-(cyclopropylmethyl)-1H-pyrrolo[2,3-b]pyridin-2-yl]-7-methoxy-1-[(1-phenyl-1H-pyrazol-4-yl)methyl]-1H-1,3-benzodiazole-5-carbonyl}-2-azabicyclo[2.2.1]heptan-7-amine] belongs 29 nM; to `COc1cc(C(=O)N2CC3CCC2[C@@H]3N)cc2nc(-c3cc4ccccc4n3CC3CC3)n(Cc3cnn(-c4cccnc4C#N)c3)c12` (stereo partly drawn) [Example 385, 3-[4-({5-[(7R)-7-amino-2-azabicyclo[2.2.1]heptane-2-carbonyl]-2-[1-(cyclopropylmethyl)-1H-indol-2-yl]-7-methoxy-1H-1,3-benzodiazol-1-yl}methyl)-1H-pyrazol-1-yl]pyridine-2-carbonitrile], 42 nM; to `COc1cc(C(=O)N2CC3CCC2[C@@H]3N)cc2nc(-c3cc4cccnc4n3CC3CC3)n(CC3CN(C(=O)c4c(F)cccc4F)C3)c12` (stereo partly drawn) [Example 431, (7R)-2-{2-[1-(cyclopropylmethyl)-1H-pyrrolo[2,3-b]pyridin-2-yl]-1-{[1-(2,6-difluorobenzoyl)azetidin-3-yl]methyl}-7-methoxy-1H-1,3-benzodiazole-5-carbonyl}-2-azabicyclo[2.2.1]heptan-7-amine], 30 nM.
To `C/C=C/C(=O)N1CC(Cn2c(-c3cc4cccnc4n3CC3CC3)nc3cc(C(=O)N4C[C@H]5CC[C@@H]4[C@@H]5N)cc(OC)c32)C1` [Example 116, (2E)-1-[3-({5-[(1R,4R,7R)-7-amino-2-azabicyclo[2.2.1]heptane-2-carbonyl]-2-[1-(cyclopropylmethyl)-1H-pyrrolo[2,3-b]pyridin-2-yl]-7-methoxy-1H-1,3-benzodiazol-1-yl}methyl)azetidin-1-yl]but-2-en-1-one] belongs 59 nM; to `COc1cc(C(=O)N2CC3CCC2[C@@H]3N)cc2nc(-c3cc4ccccc4n3CC3CC3)n(CC3CN(C(=O)c4ncccn4)C3)c12` (stereo partly drawn) [Example 446, (7R)-2-{2-[1-(cyclopropylmethyl)-1H-indol-2-yl]-7-methoxy-1-{[1-(pyrimidine-2-carbonyl)azetidin-3-yl]methyl}-1H-1,3-benzodiazole-5-carbonyl}-2-azabicyclo[2.2.1]heptan-7-amine], 43 nM.
On to `COc1cc(C(=O)N2CC3CCC2[C@@H]3N)cc2nc(-c3cc4cccnc4n3CC3CC3)n(Cc3cn(C)nc3C)c12` (stereo partly drawn) [Example 497, (7R)-2-{2-[1-(cyclopropylmethyl)-1H-pyrrolo[2,3-b]pyridin-2-yl]-1-[(1,3-dimethyl-1H-pyrazol-4-yl)methyl]-7-methoxy-1H-1,3-benzodiazole-5-carbonyl}-2-azabicyclo[2.2.1]heptan-7-amine], for which the IC50 came to 109 nM.
Consider `COC(=O)N1CC(n2c(-c3cc4cccnc4n3CC3CC3)nc3cc(C(=O)N4C[C@H]5CC[C@@H]4[C@@H]5N)cc(OC)c32)C1` [Example 188, methyl 3-{5-[(1R,4R,7R)-7-amino-2-azabicyclo[2.2.1]heptane-2-carbonyl]-2-[1-(cyclopropylmethyl)-1H-pyrrolo[2,3-b]pyridin-2-yl]-7-methoxy-1H-1,3-benzodiazol-1-yl}azetidine-1-carboxylate], for which the IC50 stood at 393 nM.
To `COc1cc(C(=O)N2CC3CCC2[C@@H]3N)cc2nc(-c3cc4cccnc4n3CC3CC3)n(Cc3cnn(-c4ccc(F)cn4)c3)c12` (stereo partly drawn) [Example 371, (7R)-2-{2-[1-(cyclopropylmethyl)-1H-pyrrolo[2,3-b]pyridin-2-yl]-1-{[1-(5-fluoropyridin-2-yl)-1H-pyrazol-4-yl]methyl}-7-methoxy-1H-1,3-benzodiazole-5-carbonyl}-2-azabicyclo[2.2.1]heptan-7-amine] belongs 30 nM; to `COc1cc(C(=O)N2C[C@H]3CC[C@@H]2[C@@H]3N)cc2nc(-c3cc4cccnc4n3CC3CC3)n(C[C@H]3CCN(c4cncnc4C#N)C3)c12` [Example 206, 5-[(3S)-3-({5-[(1R,4R,7R)-7-amino-2-azabicyclo[2.2.1]heptane-2-carbonyl]-2-[1-(cyclopropylmethyl)-1H-pyrrolo[2,3-b]pyridin-2-yl]-7-methoxy-1H-1,3-benzodiazol-1-yl}methyl)pyrrolidin-1-yl]pyrimidine-4-carbonitrile], 47 nM; to `COc1cc(C(=O)N2C[C@H]3CC[C@@H]2[C@@H]3N)cc2nc(-c3cc4ccccc4n3CC3CC3)n(CC3CN(c4cncnc4C#N)C3)c12` [Example 19, 5-[3-({5-[(1R,4R,7R)-7-amino-2-azabicyclo[2.2.1]heptane-2-carbonyl]-2-[1-(cyclopropylmethyl)-1H-indol-2-yl]-7-methoxy-1H-1,3-benzodiazol-1-yl}methyl)azetidin-1-yl]pyrimidine-4-carbonitrile], 55 nM.
To `N[C@@H]1[C@@H]2CC[C@H]1N(C(=O)c1cc(Cl)c3c(c1)nc(-c1cc4cccnc4n1CC1CC1)n3CC1CN(C(=O)c3ccccc3)C1)C2` [Example 89, (3-((5-((1R,4R,7R)-7-amino-2-azabicyclo[2.2.1]heptane-2-carbonyl)-7-chloro-2-(1-(cyclopropylmethyl)-1H-pyrrolo[2,3-b]pyridin-2-yl)-1H-benzo[d]imidazol-1-yl)methyl)azetidin-1-yl)(phenyl)methanone] belongs 41 nM; to `COc1cc(C(=O)N2C[C@H]3CC[C@@H]2[C@@H]3N)cc2nc(-c3cc4ccccc4n3C)n(CC3CNC3)c12` [Example 308, (1R,4R,7R)-2-{1-[(azetidin-3-yl)methyl]-7-methoxy-2-(1-methyl-1H-indol-2-yl)-1H-1,3-benzodiazole-5-carbonyl}-2-azabicyclo[2.2.1]heptan-7-amine], 538 nM; to `COc1cc(C(=O)N2CC3CCC2[C@@H]3N)cc2nc(-c3cc4cccnc4n3CC3CC3)n([C@H]3C[C@@H](C(N)=O)C3)c12` (stereo partly drawn) [Example 294, (1s,3s)-3-{5-[(1R,4R,7R)-7-amino-2-azabicyclo[2.2.1]heptane-2-carbonyl]-2-[1-(cyclopropylmethyl)-1H-pyrrolo[2,3-b]pyridin-2-yl]-7-methoxy-1H-1,3-benzodiazol-1-yl}cyclobutane-1-carboxamide], 456 nM.
The same measure for `COc1cc(C(=O)N2C[C@H]3CC[C@@H]2[C@@H]3N)cc2nc(-c3cc4ccccc4n3CC3CC3)n(CC3CN(C(=O)c4ccccc4C#N)C3)c12` [Example 159, 2-[3-({5-[(1R,4R,7R)-7-amino-2-azabicyclo[2.2.1]heptane-2-carbonyl]-2-[1-(cyclopropylmethyl)-1H-indol-2-yl]-7-methoxy-1H-1,3-benzodiazol-1-yl}methyl)azetidine-1-carbonyl]benzonitrile]: 24 nM; for `COc1cc(C(=O)N2C[C@H]3CC[C@@H]2[C@@H]3N)cc2nc(-c3cc4cccnc4n3CC3CC3)n(CC3CN(c4nc(C#N)ncc4C#N)C3)c12` [Example 14, 4-[3-({5-[(1R,4R,7R)-7-amino-2-azabicyclo[2.2.1]heptane-2-carbonyl]-2-[1-(cyclopropylmethyl)-1H-pyrrolo[2,3-b]pyridin-2-yl]-7-methoxy-1H-1,3-benzodiazol-1-yl}methyl)azetidin-1-yl]pyrimidine-2,5-dicarbonitrile]: 46 nM.
On to `COc1cc(C(=O)N2CCC[C@@H](N)C2)cc2nc(-c3cc4cccnc4n3CC3CC3)n(C3CN(S(C)(=O)=O)C3)c12` [Example 341, (3R)-1-{2-[1-(cyclopropylmethyl)-1H-pyrrolo[2,3-b]pyridin-2-yl]-1-(1-methanesulfonylazetidin-3-yl)-7-methoxy-IH-1,3-benzodiazole-5-carbonyl}piperidin-3-amine], for which the IC50 is 2980 nM.
To `COc1cc(C(=O)N2C[C@H]3CC[C@@H]2[C@@H]3N)cc2nc(-c3cc4cccnc4n3CC3CC3)n(CC3CN(c4cc(C#N)cnc4C#N)C3)c12` [Example 12, 3-[3-({5-[(1R,4R,7R)-7-amino-2-azabicyclo[2.2.1]heptane-2-carbonyl]-2-[1-(cyclopropylmethyl)-1H-pyrrolo[2,3-b]pyridin-2-yl]-7-methoxy-1H-1,3-benzodiazol-1-yl}methyl)azetidin-1-yl]pyridine-2,5-dicarbonitrile] belongs 38 nM.
